From the supplement of paper PMC10702517
± gives the standard deviation.

What was measured:
[1] = chemical recovery by SPE of plasma after PDMS sampling; higher = better extraction; conditions: pooled human plasma, extraction method: HLB SPE of plasma after PES
[2] = chemical recovery from spiked human plasma; higher = better extraction; conditions: pooled human plasma
[3] = chemical recovery into PDMS from spiked human plasma; higher = better extraction; conditions: pooled human plasma, extraction method: PES with PDMS
[4] = extraction method: PES+SPE (3 d PDMS equilibration then HLB SPE)
[5] = extraction method: SPE only (HLB 96-well)
[6] = extraction method: SPE only (HLB 96-well), PES comparison experiment
[7] = extraction method: solvent precipitation (ACN + hexane)
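Wherever chemical recovery by SPE of plasma after PDMS sampling is given: over 400 spiked chemicals quantified by LC-HRMS or GC-HRMS via internal standard calibration, recovery relative to spike mix added to unspiked plasma extract to correct matrix effects.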

| SMILES | chemical recovery by SPE of plasma ([1]; equilibration time (d): 1) [%] | chemical recovery by SPE of plasma ([1]; equilibration time (d): 3) [%] | chemical recovery by SPE of plasma ([1]; equilibration time (d): 6) [%] | chemical recovery [2, 4] [%] | chemical recovery [2, 5] [%] | chemical recovery [2, 6] [%] | chemical recovery [2, 7] [%] | chemical recovery into PDMS ([3]; equilibration time (d): 1) [%] | chemical recovery into PDMS ([3]; equilibration time (d): 3) [%] | chemical recovery into PDMS ([3]; equilibration time (d): 6) [%] |
| --- | --- | --- | --- | --- | --- | --- | --- | --- | --- | --- |
| COC(=O)Nc1nc2cc(C(=O)c3ccccc3)ccc2[nH]1 [Mebendazole] | 18.4 ± 2.3 | 14 ± 1.4 | 8.71 ± 0.66 | 71.2 ± 11 | 45 ± 2.8 | 42.1 ± 5.8 | 77.3 ± 3.4 | 13.7 ± 1.6 | 21 ± 1.4 | 23.6 ± 1.8 |
| COCCCC/C(=N\OCCN)c1ccc(C(F)(F)F)cc1 [Fluvoxamine] | 1.45 ± 0.092 | 1.56 ± 0.35 | 0.901 ± 0.06 | 4.62 ± 1.6 | 51 ± 0.52 | 41.8 ± 7.1 |  | 2.41 ± 0.97 | 1.09 ± 0.96 | 2.83 ± 1.3 |
| O=S(=O)(c1ccccc1)c1ccccc1 [Diphenylsulfone] | 5.48 ± 3.7 | 9.14 ± 0.92 | 7.53 ± 2.3 |  | 0.293 ± 0.035 | 15.5 ± 1.1 | 16.4 ± 3.6 | 56.9 ± 12 |  |  |
| CSc1nc(NC2CC2)nc(NC(C)(C)C)n1 [Irgarol] | 0.863 ± 0.085 | 0.842 ± 0.15 | 0.421 ± 0.023 |  | 55.7 ± 4 | 44.2 ± 6.4 | 81.5 ± 4.4 | 19.6 ± 7 | 19.3 ± 6.5 | 20.9 ± 3.9 |
| CC(=O)[C@@]1(O)CC[C@H]2[C@@H]3C[C@H](C)C4=CC(=O)CC[C@]4(C)[C@H]3CC[C@@]21C [Medroxyprogesterone] |  |  | 1.02 ± 1.8 |  |  | 47.7 ± 7 |  | 40.5 ± 2.4 | 46.2 ± 3.4 | 44.5 ± 6.2 |
| c1ccc2c(c1)-c1cccc3c1c-2cc1ccccc13 [Benzo(b)fluoranthene] |  | 3.78 ± 9.3 |  |  | 0.807 ± 0.61 |  | 36 ± 1.5 |  | 93.1 ± 4.8 | 93.6 ± 18 |
| c1cc2cccc3c4cccc5cccc(c(c1)c23)c54 [Perylene] | 0.65 ± 0.62 | 1.03 ± 0.53 | 1.2 ± 0.41 |  | 1.66 ± 0.56 |  | 64.2 ± 5.1 | 73.8 ± 6.2 | 71.9 ± 9.9 | 79.5 ± 6 |
| NC(=O)N1c2ccccc2C=Cc2ccccc21 [Carbamazepine] | 25.4 ± 2.9 | 21.1 ± 2.3 | 13.6 ± 1.4 | 61.4 ± 6.2 | 48.5 ± 5.5 | 52.6 ± 6.1 | 72.3 ± 2.5 | 22.2 ± 1.2 | 28.4 ± 2.1 | 30.7 ± 1.8 |
| Nc1nc(N)nc(NC2CC2)n1 [Cyromazine] |  |  | 5.59 ± 4.5 | 3.13 ± 0.61 | 2.36 ± 2.5 |  | 72.9 ± 2.3 |  |  | 1.4 ± 0.44 |
| Brc1ccc(Oc2cc(Br)c(Br)cc2Br)c(Br)c1 [BDE99] | 1.13 ± 1.1 |  |  | 53.9 ± 4.6 | 1.63 ± 0.65 |  | 4.89 ± 0.2 |  | 99.1 ± 13 | 92.4 ± 7.2 |
| CN1CCCC(n2nc(Cc3ccc(Cl)cc3)c3ccccc3c2=O)CC1 (stereo not drawn) [Azelastine] | 1.03 ± 0.14 | 1.27 ± 0.31 | 0.461 ± 0.41 |  |  | 43.9 ± 6 | 64.8 ± 3.2 | 0.00383 ± 0.0066 |  | 0.00617 ± 0.0099 |
| CN(C)C(=O)Nc1ccc(Cl)c(Cl)c1 [Diuron] | 8.44 ± 0.83 | 7.52 ± 0.91 | 4.83 ± 0.33 | 56.2 ± 5 | 48.9 ± 3.2 | 55.9 ± 7.4 | 74.6 ± 2.9 | 32.6 ± 1.8 | 36.3 ± 1.6 | 37 ± 2 |
| CO/C=C(/C(=O)OC)c1ccccc1COc1cccc(C(F)(F)F)n1 [Picoxystrobin] | 1.61 ± 0.23 | 2.06 ± 0.34 | 0.862 ± 0.75 |  | 38.3 ± 2.8 | 47.8 ± 7.1 | 63.7 ± 4.3 | 47 ± 3.2 | 48.5 ± 5.8 | 48.7 ± 2.7 |
| COCCN(C(=O)CCl)c1c(C)cccc1C [Dimethachlor] | 2.27 ± 0.1 | 2.96 ± 0.38 | 1.66 ± 0.09 | 45.9 ± 7 | 46.6 ± 1.6 | 47.8 ± 7.7 | 63.4 ± 4.6 | 34.9 ± 0.41 | 37.6 ± 4.3 | 38 ± 0.68 |
| c1ccc(Cc2ccccc2)cc1 [Diphenylmethane] |  | 10.1 ± 5.8 | 5.98 ± 9.4 |  | 20.4 ± 5.3 |  |  | 33.8 ± 1.2 |  | 40.4 ± 12 |
| CC(C)Nc1nc(N)nc(Cl)n1 [Desethylatrazine] | 30.4 ± 3.7 | 26.3 ± 3.2 | 19 ± 2.4 | 61.1 ± 5.3 | 45.4 ± 3.1 | 51 ± 8.1 | 45 ± 15 | 11.2 ± 0.61 | 16.9 ± 1.5 | 18.5 ± 2.4 |
| OC(Cc1ccccc1Cl)(Cn1cncn1)C1(Cl)CC1 (stereo not drawn) [Prothioconazole-desthio] | 0.693 ± 0.059 | 0.829 ± 0.22 | 0.428 ± 0.025 |  |  | 47 ± 6.8 | 89.2 ± 4 | 36.2 ± 2.6 | 38.6 ± 2 | 38.5 ± 1.7 |
| CC(C)C(=O)Nc1ccc([N+](=O)[O-])c(C(F)(F)F)c1 [Flutamide] | 21.7 ± 2.7 | 22.2 ± 0.83 | 15.5 ± 1.1 |  |  | 67.8 ± 5.2 |  | 32.4 ± 1.4 | 36.2 ± 3.1 | 36.7 ± 1.6 |
| Nc1ccc(-c2ccc(N)c(Cl)c2)cc1Cl [3,3'-Dichlorobenzidine] | 16.1 ± 5.5 | 17.3 ± 2 | 14.6 ± 2.8 | 39.1 ± 7.4 | 54.8 ± 17 | 24.4 ± 3.6 | 72 ± 6.2 | 3.87 ± 0.23 | 3.04 ± 0.4 | 3.28 ± 0.46 |
| Oc1ccc(Cl)cc1Cc1cc(Cl)ccc1O [Dichlorophen] | 53.2 ± 21 |  |  | 78.9 ± 10 |  | 50.4 ± 7.8 | 45.7 ± 2.1 | 0.919 ± 0.12 | 1.88 ± 0.2 | 2.38 ± 0.74 |
| C=CCOC(Cn1ccnc1)c1ccc(Cl)cc1Cl (stereo not drawn) [Imazalil] | 0.376 ± 0.081 | 0.334 ± 0.2 | 0.104 ± 0.0059 | 21.3 ± 3.4 | 42.1 ± 3 | 47.6 ± 5.3 | 75 ± 4.8 | 20 ± 0.37 | 20.6 ± 1 | 20.7 ± 1.6 |
| COCC(C)N(C(=O)CCl)c1c(C)csc1C (stereo not drawn) [Dimethenamid] | 1.45 ± 0.053 | 2.08 ± 0.36 | 1.25 ± 0.1 | 59.7 ± 19 | 53.9 ± 1.1 | 46.6 ± 8.4 | 55.4 ± 3.7 | 41.5 ± 0.65 | 46.1 ± 4.6 | 44.9 ± 2.2 |
| c1ccc(/N=N/c2ccccc2)cc1 [Azobenzene] | 0.184 ± 0.32 | 0.401 ± 0.35 | 0.284 ± 0.25 |  |  | 8.55 ± 2.6 |  | 26.2 ± 3.9 | 28.4 ± 5.6 | 27.9 ± 4 |
| Brc1cc(Br)c(Oc2cc(Br)c(Br)cc2Br)c(Br)c1 [BDE154] | 1.62 ± 1.4 | 1.94 ± 0.88 |  |  |  |  | 28.8 ± 2.3 |  | 67.2 ± 9.8 | 66.7 ± 20 |
| O=c1[nH]c2ccccc2s1 [2-Hydroxybenzothiazole] | 36.2 ± 6 | 37.7 ± 2.4 | 30.3 ± 2.5 | 63.5 ± 7 | 49.6 ± 2.7 | 58.8 ± 4.3 | 71.6 ± 5.8 | 9.18 ± 0.11 | 11.1 ± 0.48 | 8.95 ± 1.5 |
| N#Cc1nn(-c2c(Cl)cc(C(F)(F)F)cc2Cl)c(N)c1[S+]([O-])C(F)(F)F (stereo not drawn) [Fipronil] | 19 ± 4.9 | 21.5 ± 4.3 | 15.4 ± 2.5 |  | 31.6 ± 8.2 | 64.5 ± 6.8 | 40.3 ± 3.4 | 25.5 ± 0.91 | 30.2 ± 2.3 | 29 ± 0.92 |
